Measurements published in BindingDB's records for doi:10.1021/jm00001a011 (University of Auckland, 1995).

Assay: Inhibitory concentration of the against pp60v-src tyrosine kinase obtained from v-src baculovirus-infected insect cells

| SMILES | IC50 [µM] |
| --- | --- |
| COC(=O)c1ccc(NC(=O)c2c(SSc3c(C(=O)Nc4ccc(C(=O)OC)cc4)c4ccccc4n3C)n(C)c3ccccc23)cc1 [methyl 4-{1-methyl-2-[1-methyl-3-(4-methyloxycarbonylphenylcarbamoyl)-1H-2-indolyldisulfanyl]-1H-3-indolylcarboxamido}benzoate H2O] | 4.2 |
| COC(=O)c1ccc(CNC(=O)c2c(SSc3c(C(=O)NCc4ccc(C(=O)OC)cc4)c4ccccc4n3C)n(C)c3ccccc23)cc1 [methyl 4-{1-methyl-2-[1-methyl-3-(4-methyloxycarbonylbenzylcarbamoyl)-1H-2-indolyldisulfanyl]-1H-3-indolylcarboxamidomethyl}benzoate0.5 H2O] | 2.5 |
| Cn1c(SSc2c(C(N)=O)c3ccccc3n2C)c(C(N)=O)c2ccccc21 [2-(3-carbamoyl-1-methyl-1H-2-indolyldisulfanyl)-1-methyl-1H-3-indolecarboxamide0.5 H2O] | 0.8 |
| COC(=O)c1ccccc1NC(=O)c1c(SSc2c(C(=O)Nc3ccccc3C(=O)OC)c3ccccc3n2C)n(C)c2ccccc12 [methyl 2-{1-methyl-2-[1-methyl-3-(2-methyloxycarbonylphenylcarbamoyl)-1H-2-indolyldisulfanyl]-1H-3-indolylcarboxamido}benzoate0.5 H2O] | 15.6 |
| Cc1c(SSc2c(C)c3ccccc3n2C)n(C)c2ccccc12 [di(1,3-dimethyl-1H-2-indolyl) disulfide] | > 50 |
| CCn1c(SSc2c(C(=O)Nc3ccccc3)c3ccccc3n2CC)c(C(=O)Nc2ccccc2)c2ccccc21 [3N-phenyl-1-ethyl-2-(1-ethyl-3-phenylcarbamoyl-1H-2-indolyldisulfanyl)-1H-3-indolecarboxamide] | > 100 |
| Cn1c(SSc2c(C(=O)Nc3cccs3)c3ccccc3n2C)c(C(=O)Nc2cccs2)c2ccccc21 [3N-(2-thienyl)-1-methyl-2-[1-methyl-3-(2-thienylcarbamoyl)-1H-2-indolyldisulfanyl]-1H-3-indolecarboxamide] | > 50 |
| CN(C)C(=O)c1c(SSc2c(C(=O)N(C)C)c3ccccc3n2C)n(C)c2ccccc12 [1,3N,3N-trimethyl-2-(3-dimethylcarbamoyl-1-methyl-1H-2-indolyldisulfanyl)-1H-3-indolecarboxamide0.5 H2O] | 0.5 |
| Cn1c(SSc2c(C(=O)NCC(O)CO)c3ccccc3n2C)c(C(=O)NCC(O)CO)c2ccccc21 (configuration not stated) [3N-(2,3-dihydroxypropyl)-2-[3-(2,3-dihydroxypropylcarbamoyl)-1-methyl-1H-2-indolyldisulfanyl]-1-methyl-1H-3-indolecarboxamide] | 22.5 |
| Cn1c(SSc2c(C(=O)Nc3cccc(C(=O)O)c3)c3ccccc3n2C)c(C(=O)Nc2cccc(C(=O)O)c2)c2ccccc21 [3-{2-[3-(3-carboxyphenylcarbamoyl)-1-methyl-1H-2-indolyldisulfanyl]-1-methyl-1H-3-indolylcarboxamido}benzoic acid0.5 H2O] | 5.3 |
| O=C(O)CCc1c(SSc2[nH]c3ccccc3c2CCC(=O)O)[nH]c2ccccc12 [2,2 -Dithiobis(1H-indole-3-propanoic acid)] | 5.1 |
| O=C(Nc1ccccc1)c1c(SSc2[nH]c3ccccc3c2C(=O)Nc2ccccc2)[nH]c2ccccc12 [3N-phenyl-2-(3-phenylcarbamoyl-1H-2-indolyldisulfanyl)-1H-3-indolecarboxamide] | 7.6 |
| O=C(NCc1ccccc1)c1c(SSc2[nH]c3ccccc3c2C(=O)NCc2ccccc2)[nH]c2ccccc12 [3N-benzyl-2-(3-benzylcarbamoyl-1H-2-indolyldisulfanyl)-1H-3-indolecarboxamide] | 16.3 |
| COC(=O)c1cccc(NC(=O)c2c(SSc3c(C(=O)Nc4cccc(C(=O)OC)c4)c4ccccc4n3C)n(C)c3ccccc23)c1 [methyl 3-{1-methyl-2-[1-methyl-3-(3-methyloxycarbonylphenylcarbamoyl)-1H-2-indolyldisulfanyl]-1H-3-indolylcarboxamido}benzoate] | 5.4 |
| Cn1c(SSc2c(C(=O)c3ccc(C(=O)O)cc3)c3ccccc3n2C)c(C(=O)c2ccc(C(=O)O)cc2)c2ccccc21 [4-{2-[3-(4-carboxybenzoyl)-1-methyl-1H-2-indolyldisulfanyl]-1-methyl-1H-3-indolylcarbonyl}benzoic acid2 H2O] | 4 |
| Cn1c(SSc2c(C(=O)NCc3ccccc3)c3ccccc3n2C)c(C(=O)NCc2ccccc2)c2ccccc21 [3N-benzyl-2-(3-benzylcarbamoyl-1-methyl-1H-2-indolyldisulfanyl)-1-methyl-1H-3-indolecarboxamide] | 8 |
| Cn1c(SSc2c(C(=O)Nc3cccnc3)c3ccccc3n2C)c(C(=O)Nc2cccnc2)c2ccccc21 [3N-(3-pyridyl)-1-methyl-2-[1-methyl-3-(3-pyridylcarbamoyl)-1H-2-indolyldisulfanyl]-1H-3-indolecarboxamide] | > 50 |
| Cn1c(SSc2c(C(=O)Nc3ccccc3C(=O)O)c3ccccc3n2C)c(C(=O)Nc2ccccc2C(=O)O)c2ccccc21 [2-{2-[3-(2-carboxyphenylcarbamoyl)-1-methyl-1H-2-indolyldisulfanyl]-1-methyl-1H-3-indolylcarboxamido}benzoic acid2.0 H2O] | 3.5 |
| Cn1c(SSc2c(C(=O)NCC(=O)O)c3ccccc3n2C)c(C(=O)NCC(=O)O)c2ccccc21 [({2-[3-(Carboxymethyl-carbamoyl)-1-methyl-1H-indol-2-yldisulfanyl]-1-methyl-1H-indole-3-carbonyl}-amino)-acetic acid] | 1 |
| c1ccc(-c2c(SSc3[nH]c4ccccc4c3-c3ccccc3)[nH]c3ccccc23)cc1 [di(3-phenyl-1H-2-indolyl) disulfide] | > 100 |
| Cn1c(SSc2c(C(=O)Nc3ccc(C(=O)O)cc3)c3ccccc3n2C)c(C(=O)Nc2ccc(C(=O)O)cc2)c2ccccc21 [4-{2-[3-(4-carboxyphenylcarbamoyl)-1-methyl-1H-2-indolyldisulfanyl]-1-methyl-1H-3-indolylcarboxamido}benzoic acid H2O] | 4.3 |
| COC(=O)c1ccc(C(=O)c2c(SSc3c(C(=O)c4ccc(C(=O)OC)cc4)c4ccccc4n3C)n(C)c3ccccc23)cc1 [methyl 4-{1-methyl-2-[1-methyl-3-(4-methyloxycarbonylbenzoyl)-1H-2-indolyldisulfanyl]-1H-3-indolylcarbonyl}benzoate] | 7.1 |
